The subject of one experiment is Jurkat cells. As to the kind of experiment: MTT cell survival assay, Jurkat. The format is cell-based. To be noted: Homo sapiens, 48 hours at 37° C., read-out: IC50 (GI50), cell survival. The procedure: (§1) The GI50 (IC50), the concentration at which 50% cell survival is seen upon treatment with a compound, was determined for Compound 2 in Jurkat, U87, HeLa, and ARPE cells. Cells were cultured in 96-well plates and incubated with 50 μM, 25 μM, 12.5 μM, 6 μM, 3 μM, 1.5 μM, or 0 μM of Compound 2 for 48 hours at 37° C. Following the incubation period, a 3-(4,5-dimethylthiazol-2-yl)-2,5-diphenyl tetrazolium bromide (MTT) assay was performed. In brief, a 10% volume of MTT was added to each well. Cells were incubated with MTT for 2 hours, at which time cell supernatant was removed and cells were taken into 100 μL DMSO. The absorbance of cell solutions was then read at 595 nm. A decrease in absorbance indicated a decrease in cell survival.

The next experiment has as its system U87 cells. As to the kind of experiment: MTT cell survival assay, U87. The class given is cell-based. The note with it: Homo sapiens, U-87 MG, 48 hours at 37° C., read-out: IC50 (GI50), cell survival. The procedure:
as §1
In general terms: Tetrazolium dyes change colour on reduction, which living cells bring about.

In the next experiment the test system is ARPE cells. Description: MTT cell survival assay, ARPE. To be noted: Homo sapiens, 48 hours at 37° C., read-out: IC50 (GI50), cell survival. The format is cell-based. The method, then: as §1
Experiment [1] deals with T. cruzi-infected VERO cells. Description: Treatment of T. cruzi-infected VERO cells, confocal microscopy. To be noted: 5 μM, 5 days. The format is cell-based, Trypanosoma cruzi. The procedure: 2×10^4 VERO cells were plated in individual confocal dishes and allowed to adhere for 16 hours at 37° C. […] The T. cruzi-infected dishes were incubated with ˜2×10^6 T. cruzi/mL for 24 hours at 37° C. to allow for internalization of parasites. T. cruzi parasites expressed tdTomato, which allowed for visualization of parasites within cells. After the 24-hour T. cruzi incubation period, extracellular parasites were removed from culture dishes. The cells were washed 3 times with cell culture media (10% fetal bovine serum; 1% penicillin/streptomycin). Designated plates were then incubated with 5 μM Compound 2 or 5 μM Compound 7 for 5 days at 37° C. Cells were then fixed in 2% paraformaldehyde and tdTomato fluorescence in cells was assessed via confocal microscopy.

For experiment [2], the system named is T. gondii-infected ARPE cells. As to the kind of experiment: Treatment of T. gondii-infected ARPE cells, imaging. The note with it: for T. gondii in ARPE cells: 4 days. The format is cell-based, Toxoplasma gondii. The method, then: ARPE cells were cultured at confluency in a 24 well plate. Cells were incubated with T. gondii (ATCC PRA-310) for 1 hour at 37° C. to allow for T. gondii internalization. After the 1-hour T. gondii incubation period, extracellular T. gondii was removed from culture and cells were washed 3 times with cell media. […] Cells were visualized using an EVOS cell imaging system. The effect of a 3-day Compound 2 treatment on T. gondii-infected ARPE cells was also investigated. 2×10^4 ARPE cells were infected with ˜1×10^6 T. gondii parasites as described in the above paragraph. Cells were then incubated with 5 μM Compound 2 for 3 days at 37° C. Following incubation with Compound 2, cells were washed 3 times in cell media, fixed with 4% paraformaldehyde, stained with DAPI, and visualized with confocal microscopy.

For another experiment, the system named is L. major promastigotes. Description: L. major promastigote viability, propidium iodide flow cytometry. The format is cell-based, Leishmania major. To be noted: 50 μM, 48 hours at 24° C. The procedure:
5×10^5 L. major promastigotes were treated with vehicle control (DMSO), […], 5 μM Compound 5, 50 μM Compound 2, 50 μM Compound 5, or […] for 48 hours at 24° C. Promastigote viability was then assessed via a propidium iodide flow cytometry assay. Propidium iodide is only taken up by dead cells, and the presence of fluorescence in a promastigote sample reflects compound efficacy.
In general terms: In flow cytometry, cells or beads pass a laser one at a time.

Experiment [3] deals with L. major-infected PBMC cells. Description: L. major-infected PBMC cells, Hoechst micrographs. The format is cell-based, Leishmania major. To be noted: 40 μM. The procedure:
Human peripheral blood mononuclear cells (PBMC) were plated onto polylysine-coated glass slides in 24-well plates and allowed to differentiate towards monocyte-derived macrophages (MDMs). Non-adherent cells were removed 48-hours post plating. Adherent monocytes were left to further differentiate for another 48 hours to MDMs. Following the completion of the differentiation period, MDMs were treated with vehicle control (DMSO), […], […], Compound 4, Compound 6, Compound 7, Compound 8, Compound 9, Compound 10, […]

The test system of experiment [4] is T. cruzi-infected THP-1 cells. As to the kind of experiment: T. cruzi-infected THP-1 derived macrophages, confocal microscopy. The format is cell-based, Trypanosoma cruzi. To be noted: 2 μM, 7 days. The procedure:
Macrophages derived by differentiation of THP-1 cells with phorbol myristate acetate were plated in confocal dishes (about 5,000 cells per dish) and incubated overnight at 37° C. Dishes were incubated with T. cruzi amastigotes and trypomastigotes expressing tdTomato (˜2×10^5 cells) for 24 hours at 37° C. Uninfected plates served as controls. After the 24-hour T. cruzi incubation period, parasites were removed, and medium was re-plated with DMEM/F12 culture media with 2 μM Compound 2 (or left untreated as a control) for 7 days at 37° C. Following fixation of cells in 4% paraformaldehyde, tdTomato fluorescence (which is indicative of viable T. cruzi) in cells was then assessed via confocal microscopy.

A further experiment relates to L. major-infected MDMs. Description: L. major-infected human MDMs, quantitative cell bioimaging. The format is cell-based, Leishmania major. To be noted: 1 μM, 5 μM, 10 μM. The method, then: Human MDMs were cultured on glass slides and incubated with metacyclic L. major for 24 hours to allow for internalization of parasites. After the 24-hour L. major incubation period, extracellular parasites were removed from the culture. 24 hours after the removal of extracellular parasites, infected cells were treated with vehicle control (DMSO), 5 μM MTF, 1 μM Compound 2, 5 μM Compound 2, 10 μM Compound 2, 2 μM Compound 7, or 20 μM Compound 7. Following treatment, the cells were fixed with 2% paraformaldehyde and subsequently stained with the DNA stain Hoechst 33342. The stained cover slips were transferred onto glass slides, and quantitative cell bioimaging was utilized to determine the number of amastigotes per 500 cells using a CellInsight CX5 High Content screening platform.

The values that follow come from patent publication US12029728B2, “Small molecules with anti-protozoan activity” (New Mexico Tech University Research Park Corporation, priority 2018, dated 2024).

Usually IC50 stands for the concentration at which inhibition is half-maximal. On to `O=C(NO)C(c1ccccc1)c1c(-c2ccc3ccccc3c2)[nH]c2ccccc12` (stereo not drawn) [Compound 2, N-hydroxy-2-(2-(naphthalen-2-yl)-1H-indol-3-yl)-2-phenylacetamide], for which the IC50 with Jurkat cells was found to be 7.97 ± 1.06 µM; with U87 cells it was 11.5 ± 0.41 µM; with ARPE cells, 14.8 ± 1.13 µM. The “T. cruzi infection in VERO cells” value in [1] was “eradication of T. cruzi infection”. Besides, the “T. gondii in ARPE cells” value in [2] (2 μM) and in [2] (5 μM) was “clearance of T. gondii from ARPE cells” each time. Moreover, the “T. gondii infection of ARPE cells” value in experiment [2] (5 μM, 3 days) is given as “cleared ARPE cells of T. gondii infection”; in [2] (5 μM, 5 days), “cleared ARPE cells of T. gondii infection”. Besides, the “efficacy on L. major promastigote survival” value with L. major promastigotes is listed as “higher efficacy than MTF or the vehicle control”. Also, the “number of parasites/PBMC cell” value in experiment [3] is reported as “decreases the number of parasites/PBMC cell”. The “intracellular proliferation of T. cruzi” value in experiment [4] is “prevented intracellular proliferation of T. cruzi”. For the same compound, in the experiment with L. major-infected MDMs, the “total number of parasites per cell” value was “decreased the total number of parasites per cell in a dose dependent manner”.
